Key:
Type in all cases: functional
Rattus norvegicus [1] = species on record: Rattus norvegicus; assay: Inhibition of insulin release from rat pancreatic islets incubated in the presence of glucose ([…]) at concentration of 1 uM
Rattus norvegicus [2] = species on record: Rattus norvegicus; assay: Inhibition of insulin release from rat pancreatic islets incubated in the presence of glucose ([…]) at concentration of 10 uM
Rattus norvegicus [3] = species on record: Rattus norvegicus; assay: Inhibition of insulin release from rat pancreatic islets incubated in the presence of glucose ([…]) at concentration of 100 uM
Rattus norvegicus [4] = species on record: Rattus norvegicus; assay: Inhibition of insulin release from rat pancreatic islets incubated in the presence of glucose ([…]) at concentration of 50 uM
Rattus norvegicus [5] = species on record: Rattus norvegicus; assay: Inhibition of insulin release from rat pancreatic islets incubated in the presence of glucose ([…]) at concentration of 500 uM

SMILES: CC(C)C(C)NC1=NS(=O)(=O)c2cc(Cl)ccc2N1 (configuration not stated)
- Secretion (Rattus norvegicus [1]): 88.9%
- Secretion (Rattus norvegicus [2]): 62.7%
- Secretion (Rattus norvegicus [3]): 6.5%
- Secretion (Rattus norvegicus [4]): 11%
- Secretion (Rattus norvegicus [5]): 4.6%

SMILES: CC(C)C(C)NC1=NS(=O)(=O)c2cnccc2N1 (configuration not stated)
- Secretion (Rattus norvegicus [1]): 70.5%
- Secretion (Rattus norvegicus [2]): 13.7%
- Secretion (Rattus norvegicus [3]): 8.8%
- Secretion (Rattus norvegicus [4]): 8.6%
- Secretion (Rattus norvegicus [5]): 8.4%

SMILES: CCC(C)NC1=NS(=O)(=O)c2cnccc2N1 (configuration not stated)
- Secretion (Rattus norvegicus [1]): 97.8%
- Secretion (Rattus norvegicus [2]): 49%
- Secretion (Rattus norvegicus [3]): 7.1%
- Secretion (Rattus norvegicus [4]): 9.4%
- Secretion (Rattus norvegicus [5]): 9.4%

SMILES: CCCNC1=NS(=O)(=O)c2cnccc2N1
- Secretion (Rattus norvegicus [1]): 97.1%
- Secretion (Rattus norvegicus [2]): 87.3%
- Secretion (Rattus norvegicus [3]): 21.9%
- Secretion (Rattus norvegicus [4]): 57.7%
- Secretion (Rattus norvegicus [5]): 9%

SMILES: O=S1(=O)N=C(NC2CCCCC2)Nc2ccncc21
- Secretion (Rattus norvegicus [1]): 74.4%
- Secretion (Rattus norvegicus [2]): 64.4%
- Secretion (Rattus norvegicus [3]): 18.4%
- Secretion (Rattus norvegicus [4]): 40.5%
- Secretion (Rattus norvegicus [5]): 6.2%

SMILES: CC1=Nc2ccc(Cl)cc2S(=O)(=O)N1 [DIAZOXIDE]
- Secretion (Rattus norvegicus [1]): 78.9%
- Secretion (Rattus norvegicus [2]): 70%
- Secretion (Rattus norvegicus [3]): 14%
- Secretion (Rattus norvegicus [4]): 28.8%
- Secretion (Rattus norvegicus [5]): 8.5%

SMILES: NC1=NS(=O)(=O)c2cnccc2N1
- Secretion (Rattus norvegicus [4]): 104.1%

SMILES: O=S1(=O)N=C(NC2CCCC2)Nc2ccncc21
- Secretion (Rattus norvegicus [1]): 82.8%
- Secretion (Rattus norvegicus [2]): 71.1%
- Secretion (Rattus norvegicus [3]): 9.2%
- Secretion (Rattus norvegicus [4]): 31.5%
- Secretion (Rattus norvegicus [5]): 4.4%

SMILES: CCCCNC1=NS(=O)(=O)c2cnccc2N1
- Secretion (Rattus norvegicus [1]): 83.7%
- Secretion (Rattus norvegicus [2]): 82%
- Secretion (Rattus norvegicus [3]): 32.5%
- Secretion (Rattus norvegicus [4]): 38.6%
- Secretion (Rattus norvegicus [5]): 9%

SMILES: CC(C)NC1=NS(=O)(=O)c2cnccc2N1
- Secretion (Rattus norvegicus [1]): 110.3%
- Secretion (Rattus norvegicus [2]): 55.3%
- Secretion (Rattus norvegicus [3]): 18.4%
- Secretion (Rattus norvegicus [4]): 42.5%
- Secretion (Rattus norvegicus [5]): 8.8%

SMILES: O=S1(=O)N=C(NN2CCOCC2)Nc2ccncc21
- Secretion (Rattus norvegicus [4]): 94.8%

SMILES: CC(C)CNC1=NS(=O)(=O)c2cnccc2N1
- Secretion (Rattus norvegicus [1]): 84.2%
- Secretion (Rattus norvegicus [2]): 71.8%
- Secretion (Rattus norvegicus [3]): 10.2%
- Secretion (Rattus norvegicus [4]): 23.4%
- Secretion (Rattus norvegicus [5]): 9.7%
